From US20240307415A1, “STEROID COMPOUND, AND PHARMACEUTICAL COMPOSITION THEREOF AND USE THEREOF” (JIANGSU SIMCERE PHARMACEUTICAL CO., LTD., priority 2021, published 2024)
pEC50: −log10 of the molar value. Read-outs that look alike come from different tables or passages of the source.

Legend:
K562-GRE reporter gene = K562-GRE reporter gene activity; format: cell-based; settings: read-out: K562-GRE Reporter EC50
Procedure: To generate the parental K562-GRE cell line, K562 cells were seeded at 5×10^5 cells/well onto a 6-well plate (brand: Costar, Cat. No: 3516) containing 2 mL of complete medium (RPM1640, 10% FBS, penicillin-streptomycin) and cultured at 37° C. with 5% CO2 for 24 h. The next day, 3 μg of pNL2.2[NLucP/MMTV/Hygro-NANO] (Promega) and 3 μL of PLUS reagent (brand: Invitrogen, Cat. No: 11514-015) were diluted in 150 μL of Opti-MEM (brand: Gibco, Cat. No: 11058021) and incubated at room temperature for 5 min. The pNL2.2[NLucP/MMTV/Hygro-NANO] vector contains MMTV LTR (mouse mammary tumor virus long terminal repeat), which drives transcription of the luciferase reporter gene NanoLuc in response to activation of several nuclear receptors (e.g. glucocorticoid receptor and androgen receptor). After incubation, the diluted DNA solution was mixed with Lipofectamine LTX solution (brand: Invitrogen, Cat. No: 15338-100) (6 μL of Lipofectamine LTX+144 μL of Opti-MEM) in a 1:1 ratio, pre-incubated, and incubated at room temperature for 15 min to form a DNA-Lipofectamine LTX complex. After incubation, 300 μL of the DNA-Lipofectamine complex was added directly to the cell wells. The K562 cells were transfected at 37° C. with 5% CO2 for 24 h. After transfection, the cells were washed with 3 mL of PBS and selectively grown for two weeks with complete growth medium containing 125 μg/mL hygromycin B (brand: Invitrogen, Cat. No: 10687010). “K562-GRE (pNL2.2[NLucP/MMTV/Hygro-NANO])” cells were generated.
After mixing, the cells were cultured in an incubator at 37° C. for 24 h. After 24 h of incubation, an equal volume of 100 μL of Nano-Glo luciferase assay system (brand: Promega, Cat. No: N1120) was added to the cells, the mixture was reacted in a shaker at […] for 10 min, and the chemiluminescence values were detected using the PHERAstar instrument. The antibody binding curves were plotted using the logarithmic value of the antibody concentration as the abscissa and the corresponding chemiluminescence reading as the ordinate, and the EC50 value was calculated by four-parameter fitting (GraphPad Prism9).

CHS mouse model = experiment: Efficacy test in CHS mouse model (FITC sensitization, right ear thickness); format: in vivo, C57BL/6N mice; settings: 3 μg/mouse
Procedure: Construction of CHS mouse model: 6- to 8-week-old female C57BL/6N mice (Beijing Vital River Laboratory Animal Technology Co., Ltd.) were selected, and all mice were shaved off abdominal hair using a small animal hair clipper. 400 μL of the sensitizer was pipetted with a micropipette and applied evenly to the abdomen of the mice for epidermal sensitization. After application, the mice were held for 3-5 s and the solvent was allowed to evaporate from the skin as clean as possible. The specific preparation method for the sensitizer was: 0.5 g of FITC (fluorescein isothiocyanate; sigma-Aldrich) powder was weighed and fully dissolved in a solvent of 50 mL of acetone (SinoPharm reagent) and 50 mL of DBP (dibutyl phthalate; sigma-Aldrich) in equal proportion to give the sensitizer with the FITC content of 0.5%. On the 6th day after sensitization, the thickness of the right ear of the mice was measured with a dial thickness gauge as a baseline value, then a freshly prepared sensitizer was pipetted with a micropipette and applied evenly inside and outside of the right ear of the mice respectively for epidermal stimulation, and 10 μL of the sensitizer was applied on each side. 24 h after stimulation, the thickness of the right ear of the mice was measured again with a dial thickness gauge to obtain the thickness change of the right ear of the mice, A thickness of right ear=(thickness of right ear 24 h after stimulation)−(baseline value of thickness of right ear).
Therapeutic regimen for CHS model mouse: mice were divided into a blank group, a negative control group, a positive control group, and an experimental group. […] The drug was administered by one-time intraperitoneal injection 1 h before the right ear epidermal stimulation.

[1] = biological target: Glucocorticoid Receptor GR (Homo sapiens (Human), UniProt P04150); experiment: Binding activity to glucocorticoid receptor GR (Polarscreen fluorescence polarization kit); settings: GR full length, 2 h
Procedure: The binding activity of the compound to GR was determined using the Polarscreen Glucocorticoid Receptor Assay Kit, Red (brand: Thermo, Cat. No: A15898). […] The highest concentration was 100 μM, 8 concentrations in total. […] With the log value of the final concentration of the compound as the X axis and the mP value as the Y axis, data was input into the processing software Graphpad Prism 9, and the EC50 value was calculated by four-parameter fitting

[2] = K562-GRE cells, 24 h incubation, NanoLuc luciferase

Sequence of Glucocorticoid Receptor GR (P04150 whole entry): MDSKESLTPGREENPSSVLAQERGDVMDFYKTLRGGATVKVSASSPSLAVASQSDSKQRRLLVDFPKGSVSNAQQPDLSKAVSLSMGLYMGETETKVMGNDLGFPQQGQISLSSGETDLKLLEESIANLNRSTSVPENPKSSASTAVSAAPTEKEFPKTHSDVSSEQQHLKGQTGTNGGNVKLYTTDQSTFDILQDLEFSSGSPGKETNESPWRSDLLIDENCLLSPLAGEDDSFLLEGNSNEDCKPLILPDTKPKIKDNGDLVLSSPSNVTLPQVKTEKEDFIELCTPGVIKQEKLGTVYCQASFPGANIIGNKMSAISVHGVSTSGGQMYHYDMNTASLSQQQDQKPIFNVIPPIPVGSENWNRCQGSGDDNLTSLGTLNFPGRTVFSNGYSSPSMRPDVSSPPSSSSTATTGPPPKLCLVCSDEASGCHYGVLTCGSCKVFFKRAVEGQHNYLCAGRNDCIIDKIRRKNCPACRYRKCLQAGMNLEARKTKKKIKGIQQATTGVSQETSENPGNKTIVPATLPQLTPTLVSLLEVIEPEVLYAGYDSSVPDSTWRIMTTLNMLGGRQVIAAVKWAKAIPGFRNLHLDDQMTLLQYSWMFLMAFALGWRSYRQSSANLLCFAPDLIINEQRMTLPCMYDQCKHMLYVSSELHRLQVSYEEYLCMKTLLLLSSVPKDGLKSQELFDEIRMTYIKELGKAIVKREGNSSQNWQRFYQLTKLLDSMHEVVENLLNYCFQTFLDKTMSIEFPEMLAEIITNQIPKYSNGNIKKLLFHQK

SMILES	pEC50 (K562-GRE reporter gene; 24 h)	pEC50 (K562-GRE reporter gene; [2])	other results
C[C@]12C=CC(=O)C=C1CC[C@@H]1[C@@H]2[C@@H](O)C[C@@]2(C)[C@H]1C[C@H]1O[C@@H](c3ccc(Cc4ccc(N)c5c4CCO5)cc3)O[C@]12C(=O)CO [Compound 001, (6aR,6bS,7S,8aS,8bS,10R,11aR,12aS,12bS)-10-(4-((7-amino-2,3-dihydrobenzofuran-4-yl)methyl)phenyl)-7-hydroxy-8b-(2-hydroxyacetyl)-6a,8a-dimethyl-6a,6b,7,8,8a,8b,11a,12,12a,12b-decahydro-1H-naphtho[2′,1′:4,5]indeno[1,2-d][1,3]dioxolan-4(2H)-one]	8.46		thickness of the right ear in CHS mice compared to the negative control group (CHS mouse model; one-time intraperitoneal injection 1 h before right ear stimulation, measured 24 h after stimulation): significant decrease; efficacy compared with positive reference compound a at the same dose (CHS mouse model; one-time intraperitoneal injection, CHS mice, right ear thickness): superior in efficacy to the positive reference compound a; pEC50 [1]: 7.88
C[C@]12C=CC(=O)C=C1CC[C@@H]1[C@@H]2[C@@H](O)C[C@@]2(C)[C@H]1C[C@H]1O[C@@H](c3ccc(Cc4ccc5nc[nH]c5c4)cc3)O[C@]12C(=O)CO [Compound 002, (6aR,6bS,7S,8aS,8bS,10R,11aR,12aS,12bS)-10-(4-((1H-benzo[d]imidazol-6-yl)methyl)phenyl)-7-hydroxy-8b-(2-hydroxyacetyl)-6a,8a-dimethyl-6a,6b,7,8,8a,8b,11a,12,12a,12b-decahydro-1H-naphtho[2′,1′:4,5]indeno[1,2-d][1,3]dioxolan-4(2H)-one]		8.05	
C[C@]12C=CC(=O)C=C1CC[C@@H]1[C@@H]2[C@@H](O)C[C@@]2(C)[C@H]1C[C@H]1O[C@@H](c3ccc(Cc4ccc5cc[nH]c5c4)cc3)O[C@]12C(=O)CO [Compound 003, (6aR,6bS,7S,8aS,8bS,10R,11aR,12aS,12bS)-10-(4-((1H-indol-6-yl)methyl)phenyl)-7-hydroxy-8b-(2-hydroxyacetyl)-6a,8a-dimethyl-6a,6b,7,8,8a,8b,11a,12,12a,12b-decahydro-1H-naphtho[2′,1′:4,5]indeno[1,2-d][1,3]dioxolan-4(2H)-one]		8.42	
C[C@]12C=CC(=O)C=C1CC[C@@H]1[C@@H]2[C@@H](O)C[C@@]2(C)[C@H]1C[C@H]1O[C@@H](c3ccc(Cc4ccc5c(c4)NCC5)cc3)O[C@]12C(=O)CO [Compound 004, (6aR,6bS,7S,8aS,8bS,10R,11aR,12aS,12bS)-7-hydroxy-8b-(2-hydroxyacetyl)-10-(4-(indolin-6-ylmethyl)phenyl)-6a,8a-dimethyl-6a,6b,7,8,8a,8b,11a,12,12a,12b-decahydro-1H-naphtho[2′,1′:4,5]indeno[1,2-d][1,3]dioxolan-4(2H)-one]	8.12		pEC50 [1]: 7.37
C[C@]12C=CC(=O)C=C1CC[C@@H]1[C@@H]2[C@@H](O)C[C@@]2(C)[C@H]1C[C@H]1O[C@@H](c3ccc(Cc4ccc5c(c4)OCCN5)cc3)O[C@]12C(=O)CO [Compound 005, (6aR,6bS,7S,8aS,8bS,10R,11aR,12aS,12bS)-10-(4-((3,4-dihydro-2H-benzo[b][1,4]oxazin-7-yl)methyl)phenyl)-7-hydroxy-8b-(2-hydroxyacetyl)-6a,8a-dimethyl-1,2,6a,6b,7,8,8a,8b,11a,12,12a,12b-decahydro-1H-naphtho[2′,1′:4,5]indeno[1,2-d][1,3]dioxolan-4(2H)-one]		8.25	
C[C@]12C=CC(=O)C=C1[C@@H](F)C[C@H]1[C@@H]3C[C@H]4O[C@@H](c5ccc(Cc6ccc7c(c6)OCCN7)cc5)O[C@@]4(C(=O)CO)[C@@]3(C)C[C@H](O)[C@@]12F [Compound 006, (2S,6aS,6bR,7S,8aS,8bS,10R,11aR,12aS,12bS)-10-(4-((3,4-dihydro-2H-benzo[b][1,4]oxazin-7-yl)methyl)phenyl)-2,6b-difluoro-7-hydroxy-8b-(2-hydroxyacetyl)-6a,8a-dimethyl-6a,6b,7,8,8a,8b,11a,12,12a,12b-decahydro-1H-naphtho[2′,1′:4,5]indeno[1,2-d][1,3]dioxolan-4(2H)-one]	8.77		
C[C@]12C=CC(=O)C=C1CC[C@@H]1[C@@H]2[C@@H](O)C[C@@]2(C)[C@H]1C[C@H]1O[C@@H](c3ccc(Cc4ccc(N)c5ncoc45)cc3)O[C@]12C(=O)CO [Compound 007, (6aR,6bS,7S,8aS,8bS,10R,11aR,12aS,12bS)-10-(4-((4-aminobenzo[d]oxazol-7-yl)methyl)phenyl)-7-hydroxy-8b-(2-hydroxyacetyl)-6a,8a-dimethyl-6a,6b,7,8,8a,8b,11a,12,12a,12b-decahydro-1H-naphtho[2′,1′:4,5]indeno[1,2d][1,3]dioxolan-4(2H)-one]	8.68		pEC50 [1]: 7.77
C[C@]12C=CC(=O)C=C1CC[C@@H]1[C@@H]2[C@@H](O)C[C@@]2(C)[C@H]1C[C@H]1O[C@@H](c3ccc(Cc4ccc(N)c5c4OCO5)cc3)O[C@]12C(=O)CO [Compound 008, (6aR,6bS,7S,8aS,8bS,10R,11 aR,12aS,12bS)-10-(4-((7-aminobenzo[d][1,3]dioxolan-4-yl)methyl)phenyl)-7-hydroxy-8b-(2-hydroxyacetyl)-6a,8a-dimethyl-6a,6b,7,8,8a,8b,11a,12,12a,12b-decahydro-1H-naphtho[2′,1′:4,5]indeno[1,2-d][1,3]dioxolan-4(2H)-one]		8.11	
C[C@]12C=CC(=O)C=C1[C@@H](F)C[C@H]1[C@@H]3C[C@H]4O[C@@H](c5ccc(Cc6ccc(N)c7c6CCO7)cc5)O[C@@]4(C(=O)CO)[C@@]3(C)C[C@H](O)[C@@]12F [Compound 010, (2S,6aS,6bR,7S,8aS,8bS,10R,11aR,12aS,12bS)-10-(4-((7-amino-2,3-dihydrobenzofuran-4-yl)methyl)phenyl)-2,6b-difluoro-7-hydroxy-8b-(2-hydroxyacetyl)-6a,8a-dimethyl-6a,6b,7,8,8a,8b,11a,12,12a,12b-decahydro-1H-naphtho[2′,1′:4,5]indeno[1,2-d][1,3]dioxolan-4(2H)-one]	8.97		
C[C@]12C=CC(=O)C=C1CC[C@@H]1[C@@H]2[C@@H](O)C[C@@]2(C)[C@H]1C[C@H]1O[C@@H](c3ccc(Cc4ccc(N)c5c4CCC5)cc3)O[C@]12C(=O)CO [Compound 011, (6aR,6bS,7S,8aS,8bS,10R,11aR,12aS,12bS)-10-(4-((7-amino-2,3-dihydro-1H-inden-4-yl)methyl)phenyl)-7-hydroxy-8b-(2-hydroxyacetyl)-6a,8a-dimethyl-6a,6b,7,8,8a,8b,11a,12,12a,12b-decahydro-1H-naphtho[2′,1′:4,5]indeno[1,2-d][1,3]dioxolan-4(2H)-one]		8.37	
CC12C=CC(=O)C=C1CCC1C2C(O)CC2(C)C1CC1OC(c3ccc(Cc4cc(N)cc5c4CCO5)cc3)OC12C(=O)CO [Compound 012, (6aR,6bS,7S,8aS,8bS,10R,11aR,12aS,12bS)-10-(4-((6-amino-2,3-dihydrobenzofuran-4-yl)methyl)phenyl)-7-hydroxy-8b-(2-hydroxyacetyl)-6a,8a-dimethyl-6a,6b,7,8,8a,8b,11a,12,12a,12b-decahydro-1H-naphtho[2′,1′:4,5]indeno[1,2-d][1,3]dioxolan-4(2H)-one]		8.02	
